Assay results reported in patent publication US20220411388A1, “SUBSTITUTED IMIDAZOLE CARBOXAMIDES AND THEIR USE IN THE TREATMENT OF MEDICAL DISORDERS” (Bial - R&D Investments, S.A., priority 2019, published 2022).
≈ marks a conversion by molar mass, not a printed value. Each block holds one compound with its values, some of them ahead of it.

Experiments:
[1] = Compound solubility in water; assay type: physicochemical
acid ceramidase (hACR) = target: T1, acid ceramidase (hACR) (Homo sapiens, UniProt Q13510); experiment: Acid ceramidase inhibition, biochemical fluorescent assay with cell lysates overexpressing acid ceramidase (substrate Rbm14-12); details: cell lysate, 1 hr preincubation at RT, pH 4.5, Rbm14-12 6.3 μM; read-out: IC50 hACR
T1 construct: expressed in transfected cells
T1 sequence (Q13510 22-395): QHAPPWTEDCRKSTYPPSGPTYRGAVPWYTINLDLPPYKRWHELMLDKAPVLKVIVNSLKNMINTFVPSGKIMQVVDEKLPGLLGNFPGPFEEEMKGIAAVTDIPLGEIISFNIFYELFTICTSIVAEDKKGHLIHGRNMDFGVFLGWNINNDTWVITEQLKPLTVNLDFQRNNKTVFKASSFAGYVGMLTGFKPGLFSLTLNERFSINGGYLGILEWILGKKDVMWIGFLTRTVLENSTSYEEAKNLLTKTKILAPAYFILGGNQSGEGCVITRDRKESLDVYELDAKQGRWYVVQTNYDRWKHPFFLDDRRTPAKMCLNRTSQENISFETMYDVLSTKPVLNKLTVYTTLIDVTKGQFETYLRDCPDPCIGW
Summary of the method: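 Enzyme source was lysate from cells overexpressing acid ceramidase, 10 µg protein per reaction. Compounds were preincubated 1 h at RT in 25 mM NaAc, 100 mM NaCl, pH 4.5.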

SMILES: COc1nc(C2CC2)cn1C(=O)NC1CC1 [Example 125, N,4-Dicyclopropyl-2-methoxy-1H-imidazole-1-carboxamide]
solubility [1]: 14 µg/mL (≈ 63.3 µM)
IC50 (acid ceramidase (hACR)): > 1000 nM

SMILES: COc1nc(C2CCCC2)cn1C(=O)NC1CC1 [Example 126, 4-Cyclopentyl-N-cyclopropyl-2-methoxy-1H-imidazole-1-carboxamide]
solubility [1]: 13 µg/mL (≈ 52.1 µM)
IC50 (acid ceramidase (hACR)): 200 to 1000 nM

SMILES: COc1nc(C2CC2)cn1C(=O)NCCC(C)C [Example 127, 4-Cyclopropyl-N-iso-pentyl-2-methoxy-1H-imidazole-1-carboxamide]
solubility [1]: 23 µg/mL (≈ 91.5 µM)
IC50 (acid ceramidase (hACR)): > 1000 nM

SMILES: COc1nc(C2CCOC2)cn1C(=O)NC1CC1 (centres unmarked) [Example 128, N-Cyclopropyl-2-methoxy-4-(tetrahydrofuran-3-yl)-1H-imidazole-1-carboxamide]
solubility [1]: 15 µg/mL (≈ 59.7 µM)
IC50 (acid ceramidase (hACR)): > 1000 nM

SMILES: CCC1(NC(=O)n2cc(C(C)(C)C)nc2OC)CC1 [Example 129, 4-(tert-Butyl)-N-(1-ethylcyclopropyl)-2-methoxy-1H-imidazole-1-carboxamide]
solubility [1]: 16 µg/mL (≈ 60.3 µM)
IC50 (acid ceramidase (hACR)): > 1000 nM

SMILES: COc1nc(C2CC2)cn1C(=O)NCCc1ccccc1 [Example 130, 4-Cyclopropyl-2-methoxy-N-phenethyl-1H-imidazole-1-carboxamide]
solubility [1]: 12 µg/mL (≈ 42.1 µM)
IC50 (acid ceramidase (hACR)): 200 to 1000 nM

SMILES: COc1nc(C2CCOC2)cn1C(=O)NCCCCC1CC1 (centres unmarked) [Example 131, N-(4-Cyclopropylbutyl)-2-methoxy-4-(tetrahydrofuran-3-yl)-1H-imidazole-1-carboxamide]
solubility [1]: 23 µg/mL (≈ 74.8 µM)
IC50 (acid ceramidase (hACR)): 200 to 1000 nM

SMILES: COc1nc(C)cn1C(=O)NCCCC(F)(F)F [Example 139, 2-Methoxy-4-methyl-N-(4,4,4-trifluorobutyl)-1H-imidazole-1-carboxamide]
solubility [1]: 32 µg/mL (≈ 121 µM)
IC50 (acid ceramidase (hACR)): 200 to 1000 nM

SMILES: COc1nc(-c2ccccc2)cn1C(=O)NC1CC1 [Example 140, N-Cyclopropyl-2-methoxy-4-phenyl-1H-imidazole-1-carboxamide]
solubility [1]: 27 µg/mL (≈ 105 µM)
IC50 (acid ceramidase (hACR)): > 1000 nM

SMILES: COc1nc(C)cn1C(=O)NCCCC(C)C [Example 142, 2-Methoxy-4-methyl-N-(4-methylpentyl)-1H-imidazole-1-carboxamide]
solubility [1]: 22 µg/mL (≈ 91.9 µM)
IC50 (acid ceramidase (hACR)): 200 to 1000 nM

SMILES: COc1nc(C)cn1C(=O)NC1CC1 [Example 148, N-Cyclopropyl-2-methoxy-4-methyl-1H-imidazole-1-carboxamide]
solubility [1]: 23 µg/mL (≈ 118 µM)
IC50 (acid ceramidase (hACR)): 200 to 1000 nM

SMILES: COc1nc(C)cn1C(=O)NCCCOC(F)(F)F [Example 151, 2-Methoxy-4-methyl-N-(3-(trifluoromethoxy)-propyl)-1H-imidazole-1-carboxamide]
solubility [1]: 30 µg/mL (≈ 107 µM)
IC50 (acid ceramidase (hACR)): 200 to 1000 nM

SMILES: COc1nc(C)cn1C(=O)NC1CCC(F)(F)CC1 [Example 152, N-(4,4-difluorocyclohexyl)-2-methoxy-4-methyl-1H-imidazole-1-carboxamide]
solubility [1]: 30 µg/mL (≈ 110 µM)
IC50 (acid ceramidase (hACR)): > 1000 nM

SMILES: COc1nc(C)cn1C(=O)NC1CCCC(F)(F)C1 (centres unmarked) [Example 153, N-(3,3-difluorocyclohexyl)-2-methoxy-4-methyl-1H-imidazole-1-carboxamide]
solubility [1]: 29 µg/mL (≈ 106 µM)
IC50 (acid ceramidase (hACR)): > 1000 nM

SMILES: COc1nc(C)cn1C(=O)NCCC1CCC(F)(F)C1 (centres unmarked) [Example 154, N-(2-(3,3-Difluorocyclopentyl)ethyl)-2-methoxy-4-methyl-1H-imidazole-1-carboxamide]
solubility [1]: 30 µg/mL (≈ 104 µM)
IC50 (acid ceramidase (hACR)): 200 to 1000 nM

SMILES: COc1nc(C)cn1C(=O)NCCCCc1ccccc1 [Example 156, 2-Methoxy-4-methyl-N-(4-phenylbutyl)-1H-imidazole-1-carboxamide]
solubility [1]: 23 µg/mL (≈ 80 µM)
IC50 (acid ceramidase (hACR)): < 200 nM

SMILES: COc1nc(-c2ccccc2)cn1C(=O)NC1CCC(F)(F)CC1 [Example 157, N-(4,4-Difluorocyclohexyl)-2-methoxy-4-phenyl-1H-imidazole-1-carboxamide]
solubility [1]: 1 µg/mL (≈ 2.98 µM)
IC50 (acid ceramidase (hACR)): 200 to 1000 nM

SMILES: COc1nc(-c2ccccc2)cn1C(=O)NC1CCCC(F)(F)C1 (centres unmarked) [Example 158, N-(3,3-Difluorocyclohexyl)-2-methoxy-4-phenyl-1H-imidazole-1-carboxamide]
solubility [1]: 1 µg/mL (≈ 2.98 µM)
IC50 (acid ceramidase (hACR)): 200 to 1000 nM

SMILES: Cc1cn(C(=O)NCCc2ccccc2)c(OCCN2CCOCC2)n1 [Example 159, 4-Methyl-2-(2-morpholinoethoxy)-N-phenethyl-1H-imidazole-1-carboxamide]
solubility [1]: 35 µg/mL (≈ 97.6 µM)
IC50 (acid ceramidase (hACR)): < 200 nM

SMILES: COc1nc(C)cn1C(=O)NCCC(C)C [Example 160, N-iso-Pentyl-2-methoxy-4-methyl-1H-imidazole-1-carboxamide]
Compound Solubility in Water [1]: 13 µg/mL
IC50 (acid ceramidase (hACR)): < 200 nM

SMILES: Cc1cn(C(=O)NC2CCC(F)(F)CC2)c(Oc2cccc(C3CN(C)C3)c2)n1 [Example 162, N-(4,4-Difluorocyclohexyl)-4-methyl-2-(3-(1-methylazetidin-3-yl)phenoxy)-1H-imidazole-1-carboxamide]
solubility [1]: 17 µg/mL (≈ 42 µM)
IC50 (acid ceramidase (hACR)): 200 to 1000 nM

SMILES: Cc1cn(C(=O)NC2CCC(F)(F)CC2)c(Oc2ccc(C#N)cc2)n1 [Example 163, 2-(4-Cyanophenoxy)-N-(4,4-difluorocyclohexyl)-4-methyl-1H-imidazole-1-carboxamide]
solubility [1]: 13 µg/mL (≈ 36.1 µM)
IC50 (acid ceramidase (hACR)): < 200 nM

SMILES: Cc1cn(C(=O)NC2CCC(F)(F)CC2)c(Oc2cccc(C#N)c2)n1 [Example 164, 2-(3-Cyanophenoxy)-N-(4,4-difluorocyclohexyl)-4-methyl-1H-imidazole-1-carboxamide]
solubility [1]: 8 µg/mL (≈ 22.2 µM)
IC50 (acid ceramidase (hACR)): < 200 nM

SMILES: Cc1cn(C(=O)NC2CCC(F)(F)CC2)c(Oc2ccc(N3CCOCC3)cc2)n1 [Example 165, N-(4,4-Difluorocyclohexyl)-4-methyl-2-(4-morpholinophenoxy)-1H-imidazole-1-carboxamide]
solubility [1]: 21 µg/mL (≈ 49.9 µM)
IC50 (acid ceramidase (hACR)): < 200 nM

The remaining lines, values ahead:

solubility [1]: 20 µg/mL (≈ 77.1 µM)
IC50 (acid ceramidase (hACR)): < 200 nM
SMILES: COc1nccn1C(=O)NCCCc1ccccc1 [Example 124, 2-methoxy-N-(3-phenylpropyl)-1H-imidazole-1-carboxamide]

solubility [1]: 10 µg/mL (≈ 44 µM)
IC50 (acid ceramidase (hACR)): < 200 nM
SMILES: CSc1nccn1C(=O)NCCC(C)C [Example 132, N-iso-Pentyl-2-(methylthio)-1H-imidazole-1-carboxamide]

solubility [1]: 18 µg/mL (≈ 47.9 µM)
IC50 (acid ceramidase (hACR)): < 200 nM
SMILES: COc1nc(C(C)(C)C)cn1C(=O)NCCCCn1ccc(C(C)(C)C)n1 [Example 134, 4-(tert-Butyl)-N-(4-(3-(tert-butyl)-1H-pyrazol-1-yl)butyl)-2-methoxy-1H-imidazole-1-carboxamide]

solubility [1]: 26 µg/mL (≈ 106 µM)
IC50 (acid ceramidase (hACR)): < 200 nM
SMILES: COc1nccn1C(=O)NCCc1ccccc1 [Example 135, 2-Methoxy-N-phenethyl-1H-imidazole-1-carboxamide]

solubility [1]: 22 µg/mL (≈ 80.5 µM)
IC50 (acid ceramidase (hACR)): < 200 nM
SMILES: COc1nccn1C(=O)NCCCCc1ccccc1 [Example 136, 2-Methoxy-N-(4-phenylbutyl)-1H-imidazole-1-carboxamide]

solubility [1]: 29 µg/mL (≈ 99.6 µM)
IC50 (acid ceramidase (hACR)): < 200 nM
SMILES: COc1nccn1C(=O)NCCCC1(C(F)(F)F)CC1 [Example 137, 2-Methoxy-N-(3-(1-(trifluoromethyl)cyclopropyl)propyl)-1H-imidazole-1-carboxamide]

solubility [1]: 27 µg/mL (≈ 88.4 µM)
IC50 (acid ceramidase (hACR)): < 200 nM
SMILES: COc1nccn1C(=O)NCCCCC1(C(F)(F)F)CC1 [Example 138, 2-Methoxy-N-(4-(1-(trifluoromethyl)cyclopropyl)butyl)-1H-imidazole-1-carboxamide]

solubility [1]: 24 µg/mL (≈ 87.8 µM)
IC50 (acid ceramidase (hACR)): < 200 nM
SMILES: COc1nc(C)cn1C(=O)NCCCc1ccccc1 [Example 141, 2-Methoxy-4-methyl-N-(3-phenylpropyl)-1H-imidazole-1-carboxamide]

solubility [1]: 27 µg/mL (≈ 104 µM)
IC50 (acid ceramidase (hACR)): < 200 nM
SMILES: COc1nc(C)cn1C(=O)NCCc1ccccc1 [Example 143, 2-Methoxy-4-methyl-N-phenethyl-1H-imidazole-1-carboxamide]

solubility [1]: 26 µg/mL (≈ 89.9 µM)
IC50 (acid ceramidase (hACR)): < 200 nM
SMILES: COc1nc(C)cn1C(=O)NCCCOc1ccccc1 [Example 144, 2-Methoxy-4-methyl-N-(3-phenoxypropyl)-1H-imidazole-1-carboxamide]

solubility [1]: 28 µg/mL (≈ 91.7 µM)
IC50 (acid ceramidase (hACR)): < 200 nM
SMILES: COc1nc(C)cn1C(=O)NCCCC1(C(F)(F)F)CC1 [Example 145, 2-Methoxy-4-methyl-N-(3-(1-(trifluoromethyl)cyclopropyl)propyl)-1H-imidazole-1-carboxamide]

solubility [1]: 19 µg/mL (≈ 66.1 µM)
IC50 (acid ceramidase (hACR)): < 200 nM
SMILES: Cc1cn(C(=O)NCCC(C)C)c(Oc2ccccc2)n1 [Example 146, N-iso-Pentyl-4-methyl-2-phenoxy-1H-imidazole-1-carboxamide]

solubility [1]: 29 µg/mL (≈ 113 µM)
IC50 (acid ceramidase (hACR)): < 200 nM
SMILES: Cc1cn(C(=O)NC2CC2)c(Oc2ccccc2)n1 [Example 147, N-Cyclopropyl-4-methyl-2-phenoxy-1H-imidazole-1-carboxamide]

solubility [1]: 21 µg/mL (≈ 73.1 µM)
IC50 (acid ceramidase (hACR)): < 200 nM
SMILES: Cc1cn(C(=O)NCCc2ccccc2)c(OC(C)C)n1 [Example 149, 2-iso-Propoxy-4-methyl-N-phenethyl-1H-imidazole-1-carboxamide]

solubility [1]: 5 µg/mL (≈ 17.4 µM)
IC50 (acid ceramidase (hACR)): < 200 nM
SMILES: Cc1cnc(OC(C)C)n1C(=O)NCCc1ccccc1 [Example 150, 2-iso-Propoxy-5-methyl-N-phenethyl-1H-imidazole-1-carboxamide]

solubility [1]: 22 µg/mL (≈ 68.9 µM)
IC50 (acid ceramidase (hACR)): < 200 nM
SMILES: COc1nc(C)cn1C(=O)NCCCCC1(C(F)(F)F)CC1 [Example 155, 2-Methoxy-4-methyl-N-(4-(1-(trifluoromethyl)-cyclopropyl)butyl)-1H-imidazole-1-carboxamide]
